Results on seven compounds are retold here after US6316409A, “Modified ligands of calcium-dependent binding proteins” (Medical Research Council, priority 1996, dated 2001).

For one experiment, the target named is calmodulin (Bos taurus, UniProt P62157). The experiment is described as follows: koff by competition experiments, native PAGE of fluorescein-labelled peptide/calmodulin complexes. The experiment is classed as binding, bovine. Set-up: Complexes between calmodulin from bovine brain (1 μM, Sigma); purchased Sigma; host or cells: bovine brain (tissue-derived). To be noted: for dissociation from calmodulin in competition with excess unlabelled peptide, in words: FIG. 3; for koff: competition with 30-fold excess unlabelled peptide, room temperature, gel buffer, read-out: koff (s^-1)^C. On the procedure: Complexes between calmodulin from bovine brain (1 μM, Sigma) and fluorescein-labelled sMLCK-derived peptides (as described in Table 1 (SEQ ID NOS:2-18)) were prepared in gel buffer (25% gel mix [4 g sucrose+1 mg bromophenol blue in water to give a 10 ml solution]+75% TBSC [50 mM TRIS pH 7.4, […]+50 μM CaCl2)] and run on a 15% native PAGE gel (5 ml 30% acrylamide-bisacrylamide solution+4.5 ml water+0.5 ml 3M Tris, pH 8.8, +1 μl 1M CaCl2 polymerised with 30 μl 25% ammonium persulphate and 9 μl TEMED) using 14.4 g/l glycine+3 g/l Tris-base+0.1 mM CaCl2 as running buffer. Peptides were labelled either with iodoacetamido fluorescein (Molecular Probes) or with iodoacetamido-LC-biotin (Pierce) essentially as previously described by Neri et al., (1995). In these conditions, the fluorescence of the positively-charged labelled peptides can be detected only if they form a stable complex with calmodulin.
In order to obtain an independent experimental confirmation if the BIAcore results, koff constants for peptides 1-17 towards calmodulin were determined by competition experiments. 30 nM fluorescein-labelled peptide/calmodulin complexes in gel buffer were competed at room temperature for different times with 30-fold excess of unlabelled peptide. The resulting mixtures were run on native PAGE gels and imaged by LUANA as described above. The bands in the image obtained were integrated using the LUANA software (Neri et al., 1996) and the corresponding intersities plotted versus time and fitted with a single exponential, from which koff constants were derived. In order to normalise band intensities against pipetting errors, the samples contained 6 nM free fluorescein which ran with the front. The fluorescein bands were integrated and used to normalise the calmodulin/fluorescent peptide complex band intensity. The results of competitions for peptides 1, 2, 3, 6, 9, and 14 are shown in this FIG. 3. Incubation time in minutes is indicated under the lanes.
The volumes of the bands were plotted versus competition time and fitted to a single exponential, from which koff values were derived.
The fastest competitions (peptides 1-4, 9 and 13, SEQ ID NOS:2-5,10, and 14) were over by the time the calmodulin/fluorescent peptide complex entered the gel (approximately 5-10 minutes from pipetting a molar excess of unlabelled peptide; FIG. 3), from which a condition on the off-rate constant koff >1×10^-3 s^-1 was derived. Even for these fast off-rates, complexes can be detected by native polyacrylamide gel electrophoresis because of the well known gel "cage effect" (Fried and Crothers, 1981; Garner and Revzin, 1981).

Experiment [1] concerns the target T1, bovine brain calmodulin (Bos taurus, UniProt P62157).
T1 construct: Complexes between calmodulin from bovine brain (1 μM, Sigma); purchased Sigma; host or cells: bovine brain (tissue-derived)
The experiment is described as follows: BIAcore surface plasmon resonance, kon and koff of calmodulin binding to biotinylated peptides. The settings on record: for increase in kon with respect to the wild-type peptide 1 / koff / kon: BIAcore; for koff: read-out: koff (s^-1)^B; for kon: read-out: kon (s^-1 M^-1)^B; for improvement in Kd / affinity for calmodulin over the wild type peptide, in words: Table 1. The source says:
(§1) For a kinetic and thermodynamic characterisation of the binding of the peptides of the present invention to bovine brain calmodulin, we have measured the kinetic isomerisation, association, and dissociation constants from which dissociation constants can be derived.
koff =k-1·k-2 /(k+2 +k-2)
Real-time interaction analysis by surface plasmon resonance on a BIAcore instrument (Jonsson et al., 1991) was used to determine kon and koff constants. Biotinylated peptides 1-17 were bound to commercially available streptavidin-coated microsensor chips (Pharmacia Biosensor), in order to achieve a surface capacity of 100-200 surface plasmon resonance units of calmodulin bound. Different concentrations of calmodulin (5, 10, 20, 50 and 100 nM in the order of FIG. 2) were injected and allowed to associate with the peptides. Regeneration of the surface was achieved by injection of 5 μl TBS+[…] which dissociates the calmodulin-peptide complex.
In general terms: SPR reads the build-up and loss of mass on a sensor chip optically.

For experiment [2], the target named is T1, bovine brain calmodulin. Description: stopped-flow measurement of kisom of calmodulin-binding peptides. The settings on record: changes in tryptophan fluorescence.
Source text: It has been shown by Torok and Trentham (1994) that smooth muscle MLCK-derived peptides bind to calmodulin with a biphasic kinetic according to the scheme: [drawing 1]
in which P is the peptide, C is calmodulin, P-C is the first complex formed on association of P and C, which then undergoes a conformational isomerisation to P-C*.
as §1
kisom constants have been measured by stopped-flow, detecting changes in tryptophan fluorescence for all the peptides except 3 (SEQ ID NO:4), in which the tryptophan is replaced by alanine.

“Also recorded” adds a separate entry of the source. Peptide text beside a SMILES is read from it.

On to `CC[C@H](C)[C@H](NC(=O)[C@H](Cc1ccccc1)NC(=O)[C@H](CC(N)=O)NC(=O)[C@H](CCCCN)NC(=O)[C@H](CCCCN)NC(=O)[C@H](Cc1c[nH]c2ccccc12)NC(=O)[C@H](CCCNC(=N)N)NC(=O)[C@H](C)NC(=O)[C@H](C)NC(=O)[C@H](C)NC(=O)[C@@H](N)CS)C(=O)N[C@@H](C)C(=O)N[C@H](C(=O)N[C@@H](CO)C(=O)N[C@@H](C)C(=O)N[C@@H](C)C(=O)N[C@@H](CC(N)=O)C(=O)N[C@@H](CCCNC(=N)N)C(=O)N[C@@H](Cc1ccccc1)C(=O)N[C@@H](C)C(=O)N[C@@H](CCCCN)C(=O)N[C@H](C(=O)N[C@@H](CO)C(N)=O)[C@@H](C)CC)C(C)C` [Peptide 14] (H-CAAARWKKNFIAVSAANRFAKIS-NH2; N-terminus assumed), for which, at calmodulin, the “dissociation from calmodulin in competition with excess unlabelled peptide, in words” value (shortened to “dissociation from calmodulin”) is reported as “intermediate off-rate” and the koff was determined as 0.00015 s⁻¹. Moreover, on bovine brain calmodulin [1], the “increase in kon with respect to the wild-type peptide 1” value is listed as 4-5 fold; the koff was 0.00014 s⁻¹; the kon was found to be 2.5e+06 M⁻¹ s⁻¹; the “improvement in Kd / affinity for calmodulin over the wild type peptide, in words” value is “greatest improvement in affinity”. The “kisom. (s^-1)^A” value on bovine brain calmodulin [2] was 1.6 (10.2) × 10^-2 s^-1.

As for `CC[C@H](C)[C@H](NC(=O)[C@H](Cc1ccccc1)NC(=O)[C@H](CC(N)=O)NC(=O)[C@H](CCCCN)NC(=O)[C@H](CCCCN)NC(=O)[C@H](Cc1c[nH]c2ccccc12)NC(=O)[C@H](CCCNC(=N)N)NC(=O)[C@H](C)NC(=O)[C@H](C)NC(=O)[C@H](C)NC(=O)[C@@H](N)CS)C(=O)N[C@@H](C)C(=O)N[C@H](C(=O)N[C@@H](C)C(=O)N[C@@H](C)C(=O)N[C@@H](C)C(=O)N[C@@H](CC(N)=O)C(=O)N[C@@H](CCCNC(=N)N)C(=O)N[C@@H](Cc1ccccc1)C(=O)N[C@@H](CCCCN)C(=O)N[C@@H](CCCCN)C(=O)N[C@H](C(=O)N[C@@H](CO)C(N)=O)[C@@H](C)CC)C(C)C` [Peptide 10] (H-CAAARWKKNFIAVAAANRFKKIS-NH2; N-terminus assumed), the koff at calmodulin came to 7.9e-05 s⁻¹. Moreover, on bovine brain calmodulin [1], the “improvement of koff with respect to wild type, in words” value is on record as “largest improvements”; the dissociation rate constant (koff) stood at 0.0001 s⁻¹; the kon came to 1.1e+06 M⁻¹ s⁻¹; the “improvement in Kd / affinity for calmodulin over the wild type peptide, in words” value is on record as “greatest improvement in affinity; also recorded: greatest improvement in Kd”. The “kisom. (s^-1)^A” value on bovine brain calmodulin [2] was 2.1 (11.0) × 10^-1 s^-1.

On to `CC[C@H](C)[C@H](NC(=O)[C@H](Cc1ccccc1)NC(=O)[C@H](CC(N)=O)NC(=O)[C@H](CCCCN)NC(=O)[C@H](CCCCN)NC(=O)[C@H](Cc1c[nH]c2ccccc12)NC(=O)[C@H](CCCNC(=N)N)NC(=O)[C@H](C)NC(=O)[C@H](C)NC(=O)[C@H](C)NC(=O)[C@@H](N)CS)C(=O)N[C@@H](C)C(=O)N[C@@H](C)C(=O)N[C@@H](CO)C(=O)N[C@@H](C)C(=O)N[C@@H](C)C(=O)N[C@@H](CC(N)=O)C(=O)N[C@@H](CCCNC(=N)N)C(=O)N[C@@H](Cc1ccccc1)C(=O)N[C@@H](CCCCN)C(=O)N[C@@H](CCCCN)C(=O)N[C@H](C(=O)N[C@@H](CO)C(N)=O)[C@@H](C)CC` [Peptide 9] (H-CAAARWKKNFIAASAANRFKKIS-NH2; N-terminus assumed), for which, at calmodulin, the “dissociation from calmodulin” value is reported as “dissociated from calmodulin in a few minutes” and the koff was at least 0.001 s⁻¹. Besides, at bovine brain calmodulin [1], the koff stood at 0.0012 s⁻¹ and the kon is 860000 M⁻¹ s⁻¹. The “kisom. (s^-1)^A” value at bovine brain calmodulin [2] is reported as 1.5 (10.3) × 10^-1 s^-1.

Consider `CC[C@H](C)[C@H](NC(=O)[C@H](CCCCN)NC(=O)[C@H](CCCCN)NC(=O)[C@H](Cc1ccccc1)NC(=O)[C@H](CCCNC(=N)N)NC(=O)[C@H](CC(N)=O)NC(=O)[C@H](C)NC(=O)[C@H](C)NC(=O)[C@H](CO)NC(=O)[C@@H](NC(=O)[C@H](C)NC(=O)[C@H](C)NC(=O)[C@H](Cc1ccccc1)NC(=O)[C@H](CC(N)=O)NC(=O)[C@H](CCCCN)NC(=O)[C@H](CCCCN)NC(=O)[C@H](Cc1c[nH]c2ccccc12)NC(=O)[C@H](CCCNC(=N)N)NC(=O)[C@H](C)NC(=O)[C@H](C)NC(=O)[C@H](C)NC(=O)[C@@H](N)CS)C(C)C)C(=O)N[C@@H](CO)C(N)=O` [Peptide 8] (H-CAAARWKKNFAAVSAANRFKKIS-NH2; N-terminus assumed), for which the koff on calmodulin worked out at 0.00047 s⁻¹. In addition, at bovine brain calmodulin [1], the koff is 0.00023 s⁻¹ and the kon came out at 920000 M⁻¹ s⁻¹. The “kisom. (s^-1)^A” value at bovine brain calmodulin [2] is on record as 1.1 (10.3) × 10^-1 s^-1.

With `CC[C@H](C)[C@H](NC(=O)[C@H](Cc1ccccc1)NC(=O)[C@H](CC(N)=O)NC(=O)[C@H](CCCCN)NC(=O)[C@H](CCCCN)NC(=O)[C@H](Cc1c[nH]c2ccccc12)NC(=O)[C@H](C)NC(=O)[C@H](C)NC(=O)[C@H](C)NC(=O)[C@H](C)NC(=O)[C@@H](N)CS)C(=O)N[C@@H](C)C(=O)N[C@H](C(=O)N[C@@H](CO)C(=O)N[C@@H](C)C(=O)N[C@@H](C)C(=O)N[C@@H](CC(N)=O)C(=O)N[C@@H](CCCNC(=N)N)C(=O)N[C@@H](Cc1ccccc1)C(=O)N[C@@H](CCCCN)C(=O)N[C@@H](CCCCN)C(=O)N[C@H](C(=O)N[C@@H](CO)C(N)=O)[C@@H](C)CC)C(C)C` [Peptide 2] (H-CAAAAWKKNFIAVSAANRFKKIS-NH2; N-terminus assumed), at calmodulin, the “dissociation from calmodulin” value is recorded as “dissociated from calmodulin in a few minutes” and the koff was at least 0.001 s⁻¹. Also, at bovine brain calmodulin [1], the “increase in kon with respect to the wild-type peptide 1” value was 4-5 fold, the koff came to 0.0015 s⁻¹ and the kon was 3e+06 M⁻¹ s⁻¹. For the same compound, the “kisom. (s^-1)^A” value at bovine brain calmodulin [2] is 1.2 (10.5) × 10^-1 s^-1.

Regarding `CC[C@H](C)[C@H](NC(=O)[C@H](Cc1ccccc1)NC(=O)[C@H](CC(N)=O)NC(=O)[C@H](C)NC(=O)[C@H](CCCCN)NC(=O)[C@H](Cc1c[nH]c2ccccc12)NC(=O)[C@H](CCCNC(=N)N)NC(=O)[C@H](C)NC(=O)[C@H](C)NC(=O)[C@H](C)NC(=O)[C@@H](N)CS)C(=O)N[C@@H](C)C(=O)N[C@H](C(=O)N[C@@H](CO)C(=O)N[C@@H](C)C(=O)N[C@@H](C)C(=O)N[C@@H](CC(N)=O)C(=O)N[C@@H](CCCNC(=N)N)C(=O)N[C@@H](Cc1ccccc1)C(=O)N[C@@H](CCCCN)C(=O)N[C@@H](CCCCN)C(=O)N[C@H](C(=O)N[C@@H](CO)C(N)=O)[C@@H](C)CC)C(C)C` [Peptide 5] (H-CAAARWKANFIAVSAANRFKKIS-NH2; N-terminus assumed), the koff on calmodulin worked out at 0.00021 s⁻¹; at bovine brain calmodulin [1], 0.00029 s⁻¹. For the same compound, the kon at bovine brain calmodulin [1] turned out to be 1.1e+06 M⁻¹ s⁻¹. At bovine brain calmodulin [2], the “kisom. (s^-1)^A” value was 7.4 (11.0) × 10^-2 s^-1.

As for `CC[C@H](C)[C@H](NC(=O)[C@H](C)NC(=O)[C@H](CC(N)=O)NC(=O)[C@H](CCCCN)NC(=O)[C@H](CCCCN)NC(=O)[C@H](Cc1c[nH]c2ccccc12)NC(=O)[C@H](CCCNC(=N)N)NC(=O)[C@H](C)NC(=O)[C@H](C)NC(=O)[C@H](C)NC(=O)[C@@H](N)CS)C(=O)N[C@@H](C)C(=O)N[C@H](C(=O)N[C@@H](CO)C(=O)N[C@@H](C)C(=O)N[C@@H](C)C(=O)N[C@@H](CC(N)=O)C(=O)N[C@@H](CCCNC(=N)N)C(=O)N[C@@H](Cc1ccccc1)C(=O)N[C@@H](CCCCN)C(=O)N[C@@H](CCCCN)C(=O)N[C@H](C(=O)N[C@@H](CO)C(N)=O)[C@@H](C)CC)C(C)C` [Peptide 7] (H-CAAARWKKNAIAVSAANRFKKIS-NH2; N-terminus assumed), the figures for the koff at calmodulin and at bovine brain calmodulin [1] were 0.0006 s⁻¹ and 0.00039 s⁻¹, respectively. Besides, the kon at bovine brain calmodulin [1] was found to be 900000 M⁻¹ s⁻¹. The “kisom. (s^-1)^A” value on bovine brain calmodulin [2] is given as 2.5 (10.7) × 10^-1 s^-1.

Broadly, the koff is a measure of how fast the partners let go of each other. As a reminder, the kon is a measure of how fast the partners come together.
